Tests used:
[1] = system: DSS-Induced inflammatory Bowel Disease Models in Mice; assay: DSS-induced inflammatory bowel disease model in mice (Biological Example 2, 0.9% DSS); type: in vivo, C57BL/6 mice; conditions: 100 mg/Kg i.g. Q.D; 0.9% DSS 5 days; end of experiment
Procedure: 66 female C57BL/6 mice were randomly divided into 6 groups: normal control group, model control group, cyclosporine A (25 mg/Kg), 5-ASA (100 mg/Kg), the compound in Example 27 (30 mg/Kg) and the compound in Example 26 (30 mg/Kg). There were 11 mice in each group (see Table 4 below). Besides the normal control group, the remaining groups were induced with 0.9% DSS for 5 days. The day of induction was the first day of the test and then normal drinking water was administered for 4 days. The normal control group was administered with normal drinking water all the time. The model control group, 5-ASA group, the compound in Example 27 group and the compound in Example 26 group were administered with 1% CMC-Na or the corresponding drug every day from the first day of the experiment to the end of the experiment. The cyclosporine A group was administered with cyclosporine A every day from the first day of experiment to the fifth day of the experiment and was administered with the corresponding volume of 1% CMC-Na every day from the sixth day to the end of the experiment due to toxicity. The normal control group was administered with the corresponding volume of 1% CMC-Na every day. The animals were treated and the indexes were tested at the end of the experiment.
The compound in Example 27, the compound in Example 26, 5-ASA or Cyclosporine A: Preparation Method: Suspended with 1% CMC-Na, and prepared when it was needed.
One-Way Anova test was performed with SPSS 17.0. The colony length was analyzed statistically between groups.

[2] = system: DSS-Induced inflammatory Bowel Disease Models in Mice; assay: DSS-induced inflammatory bowel disease model in mice (Biological Example 5, 1.3% DSS); type: in vivo, C57BL/6 mice; conditions: 30 mg/Kg i.g. Q.D, 1.3% DSS days 0-5; for inhibition in vivo at 30 mg/kg: Mus musculus, po, read-out: Inhibitory Rate of Colonic Reduction
Procedure: 40 healthy female C57BL/6 mice having weight of 16-19 g were randomly divided into 4 groups in accordance with weight. There were 10 mice in each group (see Table 6 below). The first day of the experiment was recorded as Day 0. The administration regimen and induction regimen were detailed in Table 6. The change in weight of experimental animals was recorded every day. […] Samples of animal colonic tissues were obtained to measure the length. One-way ANOVA analysis of mice weights was performed by SPSS22. Statistical analyses between groups were performed. Mann-Whitney U non-parametric test was performed on the length of colon.
The experimental method used in the present biological example is identical to those in Biological Example 3.
One-way ANOVA analysis of mice body weights and colonic weights per length was performed by SPSS22. Statistical analyses between groups were performed.
Calculation Formula of Inhibitory Rate of Colonic Reduction: (Length of Colon in Administration Group−Length of Colon in Model Group)/(Length of Colon in Blank Group−Length of Colon in Model Group)

ICR mice = assay: Acute toxicity experiment of single oral administration in mice; type: in vivo; conditions: 1000 mg/Kg single oral dose
Summary of the method: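 Fasted ICR mice (19–21 g, 3 male and 3 female per group) received a single oral dose of 1000 mg/Kg, given first to one of each sex, then to the remaining four. Acute signs were scored over the first 15 min, then state, deaths and daily body weight over 7 days.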

| Compound | colon length (Mean ± SD) [1] [cm] | Length (cm, Mean ± SD) of colon [2] [cm] | inhibition in vivo at 30 mg/kg [2] [%] | Daily Body Weight of Tested Female Mice (Mean ± SD) (ICR mice; Day 1) [g] | Daily Body Weight of Tested Male Mice (Mean ± SD) (ICR mice; Day 1) [g] | Daily Body Weight of Tested Female Mice (Mean ± SD) (ICR mice; Day 2) [g] | Daily Body Weight of Tested Male Mice (Mean ± SD) (ICR mice; Day 2) [g] | Daily Body Weight of Tested Female Mice (Mean ± SD) (ICR mice; Day 3) [g] | Daily Body Weight of Tested Male Mice (Mean ± SD) (ICR mice; Day 3) [g] | Daily Body Weight of Tested Female Mice (Mean ± SD) (ICR mice; Day 4) [g] | Daily Body Weight of Tested Male Mice (Mean ± SD) (ICR mice; Day 4) [g] | Daily Body Weight of Tested Female Mice (Mean ± SD) (ICR mice; Day 5) [g] | Daily Body Weight of Tested Male Mice (Mean ± SD) (ICR mice; Day 5) [g] | Daily Body Weight of Tested Female Mice (Mean ± SD) (ICR mice; Day 6) [g] | Daily Body Weight of Tested Male Mice (Mean ± SD) (ICR mice; Day 6) [g] | Daily Body Weight of Tested Female Mice (Mean ± SD) (ICR mice; Day 7) [g] | Daily Body Weight of Tested Male Mice (Mean ± SD) (ICR mice; Day 7) [g] | Summary of toxic response of tested animals in 7 Days (ICR mice; Female) | Summary of toxic response of tested animals in 7 Days (ICR mice; Male) |
| --- | --- | --- | --- | --- | --- | --- | --- | --- | --- | --- | --- | --- | --- | --- | --- | --- | --- | --- | --- |
| Nc1ccc(O)c(C(=O)O)c1 [Example 5-ASA, 5-aminosalicylic acid, reference compound] | 6.1 ± 0.4 |  |  |  |  |  |  |  |  |  |  |  |  |  |  |  |  |  |  |
| COCCCN1C(=O)CCC(N2C(=O)c3cccc(F)c3C2=O)C1=O (stereo not drawn) [Example 17, 4-fluoro-2-(1-(3-methoxypropyl)-2,6-dioxopiperidin-3-yl)isoindolin-1,3-dione] |  | 7.0 ± 0.4 | 109 | 18.6 ± 1.0 | 19.0 ± 0.7 | 21.9 ± 0.4 | 24.0 ± 0.7 | 22.7 ± 0.4 | 24.6 ± 0.8 | 22.7 ± 0.4 | 24.6 ± 0.8 | 23.0 ± 0.4 | 26.1 ± 0.7 | 23.1 ± 1.0 | 28.1 ± 0.6 | 22.7 ± 1.2 | 29.3 ± 1.0 | Motor dysfunction in one animal was observed 10 minutes after | Motor dysfunction in two animals was observed 30 minutes after |
| CCOCCN1C(=O)CCC(N2C(=O)c3cccc(F)c3C2=O)C1=O (stereo not drawn) [Example 20, 4-fluoro-2-(1-(2-ethoxyethyl)-2,6-dioxopiperidin-3-yl)isoindolin-1,3-dione] |  | 6.9 ± 0.6 | 100 | 18.7 ± 0.4 | 18.8 ± 1.0 | 21.6 ± 1.0 | 24.0 ± 1.1 | 22.1 ± 1.0 | 25.3 ± 1.2 | 22.1 ± 1.0 | 25.3 ± 1.2 | 23.0 ± 1.4 | 26.7 ± 1.2 | 23.3 ± 0.2 | 29.0 ± 1.1 | 23.7 ± 0.8 | 29.3 ± 0.7 | Decrease of activity was observed in two animals in 10 minutes | Decrease of activity was observed in one animal 11 minutes after |
| COCCCCN1C(=O)CCC(N2C(=O)c3cccc(N)c3C2=O)C1=O (stereo not drawn) [Example 22, 4-amino-2-(1-(4-methoxybutyl)-2,6-dioxopiperidin-3-yl)isoindolin-1,3-dione] |  | 6.9 ± 0.4 | 100 | 18.5 ± 0.6 | 17.1 ± 0.3 | 21.8 ± 0.3 | 22.9 ± 0.8 | 22.9 ± 0.4 | 23.5 ± 0.9 | 24.0 ± 1.0 | 25.2 ± 0.5 | 25.0 ± 0.4 | 27.2 ± 1.9 | 25.3 ± 0.6 | 27.1 ± 1.8 | 25.6 ± 0.2 | 27.4 ± 1.9 |  |  |
| COCCN1C(=O)CCC(N2C(=O)c3cccc(O)c3C2=O)C1=O (stereo not drawn) [Example 23, 4-hydroxy-2-(1-(2-methoxyethyl)-2,6-dioxopiperidin-3-yl)isoindolin-1,3-dione] |  | 6.9 ± 0.5 | 100 | 19.1 ± 0.6 | 19.4 ± 0.8 | 22.4 ± 0.4 | 24.6 ± 1.2 | 23.0 ± 0.1 | 24.5 ± 0.6 | 23.0 ± 0.1 | 24.5 ± 0.6 | 24.6 ± 0.4 | 25.4 ± 1.2 | 24.8 ± 0.7 | 28.1 ± 0.8 | 24.6 ± 0.4 | 29.0 ± 0.8 | Abnormality was not observed in 7 days of the test | Abnormality was not observed in 7 days of the test |
| COCCN1C(=O)CCC(N2C(=O)c3cccc(C)c3C2=O)C1=O (stereo not drawn) [Example 24, 4-methyl-2-(1-(2-methoxyethyl)-2,6-dioxopiperidin-3-yl)-isoindolin-1,3-dione] |  | 6.7 ± 0.6 | 81.8 | 18.4 ± 0.7 | 17.7 ± 0.2 | 22.4 ± 1.0 | 22.3 ± 0.7 | 23.4 ± 1.0 | 24.5 ± 1.0 | 23.6 ± 0.9 | 25.2 ± 1.0 | 24.3 ± 0.6 | 27.2 ± 1.3 | 24.7 ± 0.6 | 28.1 ± 2.0 | 24.8 ± 1.5 | 28.9 ± 1.9 |  |  |
